Experimental data as given in ChEMBL document CHEMBL2074478, “Cisplatin induces renal expression of P-glycoprotein and canalicular multispecific organic anion transporter” (Am J Physiol, 1999).

What was measured:
[1] = biological target: ATP-binding cassette sub-family C member 2 (Rattus norvegicus, UniProt Q63120); experiment: (§1) TP_TRANSPORTER: Western in vivo, kidney of SD rat; format: functional, organism-based, Sprague-Dawley
[2] = biological target: Multidrug resistance protein 1a (Rattus norvegicus) (UniProt Q6PSM0); experiment: TP_TRANSPORTER: Western in vivo, liver of SD rat; format: functional, organism-based; conditions: Sprague-Dawley
[3] = biological target: Multidrug resistance protein 1a (Rattus norvegicus) (UniProt Q6PSM0); experiment: as §1; format: functional, organism-based; conditions: Sprague-Dawley
[4] = biological target: Multidrug resistance protein 1a (Rattus norvegicus) (UniProt Q6PSM0); experiment: TP_TRANSPORTER: Western in vivo, intestine of SD rat; format: functional, organism-based; conditions: Sprague-Dawley

Chain of ATP-binding cassette sub-family C member 2 (Q63120 whole entry): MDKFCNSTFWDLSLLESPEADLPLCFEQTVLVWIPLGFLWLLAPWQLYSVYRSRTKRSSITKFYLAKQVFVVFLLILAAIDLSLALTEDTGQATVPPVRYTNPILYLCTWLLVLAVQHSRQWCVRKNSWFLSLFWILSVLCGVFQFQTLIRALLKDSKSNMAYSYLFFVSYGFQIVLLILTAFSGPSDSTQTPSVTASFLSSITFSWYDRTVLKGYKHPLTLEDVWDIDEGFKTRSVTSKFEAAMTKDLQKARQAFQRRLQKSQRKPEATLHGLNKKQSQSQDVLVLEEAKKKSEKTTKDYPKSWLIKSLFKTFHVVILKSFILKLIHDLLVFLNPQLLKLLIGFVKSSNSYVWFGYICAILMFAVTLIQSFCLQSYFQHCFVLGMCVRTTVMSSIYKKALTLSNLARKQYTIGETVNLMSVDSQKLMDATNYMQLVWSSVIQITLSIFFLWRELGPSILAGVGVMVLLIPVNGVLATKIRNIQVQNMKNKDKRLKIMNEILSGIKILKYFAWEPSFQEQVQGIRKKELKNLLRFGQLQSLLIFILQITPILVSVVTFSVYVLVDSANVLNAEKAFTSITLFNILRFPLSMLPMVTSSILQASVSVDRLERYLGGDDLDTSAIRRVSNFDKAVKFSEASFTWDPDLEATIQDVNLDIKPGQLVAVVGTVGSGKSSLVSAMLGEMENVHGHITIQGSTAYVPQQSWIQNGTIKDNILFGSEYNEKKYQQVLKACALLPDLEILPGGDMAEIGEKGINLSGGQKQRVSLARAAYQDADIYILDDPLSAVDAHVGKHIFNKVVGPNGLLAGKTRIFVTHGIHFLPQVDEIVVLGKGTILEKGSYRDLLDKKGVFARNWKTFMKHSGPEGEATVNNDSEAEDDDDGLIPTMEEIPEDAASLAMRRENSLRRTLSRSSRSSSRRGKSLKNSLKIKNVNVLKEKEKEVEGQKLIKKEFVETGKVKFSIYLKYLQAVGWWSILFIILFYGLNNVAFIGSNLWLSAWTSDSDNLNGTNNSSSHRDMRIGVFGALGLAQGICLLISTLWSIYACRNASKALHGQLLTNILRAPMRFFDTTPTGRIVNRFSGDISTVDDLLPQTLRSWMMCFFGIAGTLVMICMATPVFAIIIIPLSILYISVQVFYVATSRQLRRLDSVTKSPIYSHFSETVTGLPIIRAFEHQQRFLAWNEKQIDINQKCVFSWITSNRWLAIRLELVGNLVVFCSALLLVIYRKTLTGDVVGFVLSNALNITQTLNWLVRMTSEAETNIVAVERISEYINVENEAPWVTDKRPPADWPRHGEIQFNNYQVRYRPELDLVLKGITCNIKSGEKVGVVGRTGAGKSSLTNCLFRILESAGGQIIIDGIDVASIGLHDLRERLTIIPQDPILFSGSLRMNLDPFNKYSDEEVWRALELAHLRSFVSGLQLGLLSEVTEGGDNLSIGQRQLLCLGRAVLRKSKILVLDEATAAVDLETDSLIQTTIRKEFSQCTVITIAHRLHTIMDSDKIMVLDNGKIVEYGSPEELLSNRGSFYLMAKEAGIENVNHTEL

Row | Activity [1] | Activity [2] | Activity [3] | Activity [4] | Sequence
1 | inducer [+] |  |  |  | CISPLATIN [listing 1 of 2 here]
2 |  | inducer [+] | inducer [+] | inducer [+] | CISPLATIN [listing 2 of 2 here]
